Literature values in US6008240A, “2-(1H-4(5)-imidazoyl) cyclopropyl derivatives” (Gliatech, Inc., priority 1997, dated 1999).

Assays:
[1] = test system: H3 receptor; conditions: cited from earlier work
[2] = test system: H3; conditions: cited from earlier work
[3] = dose-dependent; species not printed in this sentence (preceding sentence: cat); cited from earlier work

COc1ccc(CC(=NO)C(=O)NCCc2c[nH]cn2)cc1Br
activity in an H3 receptor assay [1]: active in an H3 receptor assay | H3 antagonism on guinea pig ileum [2]: H3 antagonist on guinea pig ileum

S=C(NC1CCCCC1)N1CCC(c2cnc[nH]2)CC1 [thioperamide]
wakefulness [3]: enhanced wakefulness in a dose-dependent fashion
